# Data taken from US9642854B2, “Flavanoid compounds and process for preparation thereof” (Council of Scientific & Industrial Research, priority 2009, dated 2017).
# Like-named read-outs stand apart in the source and are kept apart here.
# How the values were obtained:
# H. pylori [1] = assay: Anti H. pylori spectrum (MIC) by agar dilution method; type: cell-based, Helicobacter pylori; settings: Helicobacter pylori; for MIC50: MIC against 50% of the strains of the panel, read-out: MIC50
# In short: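 Agar dilution per CLSI against six clinical isolates and four standard strains on BHI agar with 7% FCS, 0.5% IsoVitalex and DENT. Inoculum ~10^8 CFU/mL; 2-fold compound dilutions from 1.56-100; 72 h microaerophilic at 37 °C. MIC read visually as no growth, in duplicate; MIC50 covers 50% of strains.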
# [2] = target: T1, pig gastric H^+,K^+-ATPase (Sus scrofa, UniProt P19156); assay: Gastric H+,K+-ATPase activity assay; type: biochemical
# T1 construct: tubulovesicular and apical membranes, isolated from freshly slaughtered pig gastric mucosa; from tissue; host or cells: pig gastric mucosa (membrane fraction by density gradient centrifugation)
# Description: The data are averages of 3-4 determinations each carried out in triplicate. The assay system contained 10 mM PIPES-Tris (pH 6.8), 2 mM each of ATP and MgCl2 with or without 10 mM KCl and about […] in a final volume of 1 mL. Both blank and experimental tubes with or without CPP-1 at different concentrations were preincubated with otherwise complete assay mixture at 37° C. for 10 min before initiating the reaction with the substrate ATP. K^+-stimulated activity referred to as H^+,K^+-ATPase activity, was calculated as the difference between the activity in presence of Mg^2+ plus K^+ and the basal activity (Mg^2+-ATPase) in presence of Mg2^+ alone. The specific activity of H^+,K^+-ATPase in control sets was in the range of 40-50 μmole Pi/mg protein/h.
# The effect of CPP-1 on gastric H^+K^+-ATPase was investigated. Isolation of pig gastric mucosal membranes, rich in H^+,K^+-ATPase activity, was carried out by density gradient centrifugation technique (Ray, 1978). The enzyme assay system contained 10 mM PIPES-Tris (pH 6.8), 2 mM each of ATP and MgCl with or without 10 mM KCl and about […] in a final volume of 1 mL. Both blank and experimental tubes with or without CPP-1 at different concentrations were preincubated with otherwise complete assay mixture at 37° C. for 10 min before initiating the reaction with the substrate ATP. After appropriate time of incubation with ATP at 37° C., the reaction was terminated with the addition of 1 mL of ice-cold TCA (14%, w/v). The liberated inorganic phosphate (Pi) was estimated essentially by the method of Sanui (1974). K^+-stimulated activity referred to as H^+,K^+-ATPase activity, was calculated as the difference between the activity in presence of Mg^2+ plus K^+ and the basal activity (Mg^2+-ATPase) in presence of Mg^2+ alone. The specific activity of H^+,K^+-ATPase was expressed as micromoles of Pi liberated per hour per milligram protein. The data are averages of 3-4 determinations each carried out in triplicate. The specific activity of H^+,K^+-ATPase in control sets was in the range of 40-50 μmole Pi/mg protein/h.
# H. pylori [3] = assay: Acid stability study (pH ~2.0, 2 h, then MIC/MBC by microbroth dilution); type: cell-based, Helicobacter pylori; settings: for MBC / MIC: Helicobacter pylori
# Description: Details of experimental protocol are described under Experiment 7. MIC/MBC values were determined by microbroth dilution assay.
# A 100 μL stock of CPP-1, NMC-1, NMC-2 and CPP-3 (1-2 mg/mL) was treated with 20-30 μL of 0.12 NHCl to bring the pH of the solution to ^˜2.0, and kept at 25° C. for 2 h (Funatogawa et al., 2004). Such acid-treated samples were then serially diluted (2 fold) with medium in 96-well microtitre plates to determine the MIC and the MBC values by microbroth dilution assay as detailed under Experiment 3.
# H. pylori [4] = assay: MIC and MBC by microbroth dilution assay; type: cell-based, Helicobacter pylori; settings: for MBC / MIC: Helicobacter pylori
# Description: The compounds, serially diluted ([…]) in Muller Hinton broth containing 5% FCS, were incubated in 96-well microtitre plate containing fresh cultures of HP001 (˜5.5×10^6 CFU/mL) or ATCC® 43504 (2.65×10^6 CFU/ml) in a final volume of […]. After 72-h of incubation under microaerophilic condition at 37° C., […] of cultures wherein no growth had been detected were streaked on fresh brain heart infusion agar plates for MBC determination.
# In microbroth dilution assay employing one clinical and one standard strain, both the bacteriostatic and the bactericidal values were determined for all four compounds as well as for clarithromycin (Table 4). Two-fold serial dilutions were prepared in 96-well microtitre plate containing a total volume of 0.1 mL Mueller Hinton broth supplemented with 5% FCS. A 3-day old liquid culture was diluted 10 times in Mueller Hinton broth and 0.1 mL of these cultures was inoculated into each well to give a final concentration of ˜10^6 CFU/mL. The plates were incubated for 3 days in a microaerophilic atmosphere at 37° C. Following incubation, the plates were examined visually, and the lowest concentration showing complete inhibition of growth was recorded as the MIC of the respective compound (Hachem et al., 1996). Aliquots (0.1 mL) of 72-h culture in which no growth had been detected were taken from the wells of the above microtitre plates and used to streak on fresh BHI agar plates.
# H. pylori ATCC 43504 = assay: Short time kill kinetics in shake culture at different pH; type: cell-based, Helicobacter pylori
# [5] = ATCC43504, microbroth dilution, ATCC 43504
# T1 sequence (P19156 2-1034 limits assumed): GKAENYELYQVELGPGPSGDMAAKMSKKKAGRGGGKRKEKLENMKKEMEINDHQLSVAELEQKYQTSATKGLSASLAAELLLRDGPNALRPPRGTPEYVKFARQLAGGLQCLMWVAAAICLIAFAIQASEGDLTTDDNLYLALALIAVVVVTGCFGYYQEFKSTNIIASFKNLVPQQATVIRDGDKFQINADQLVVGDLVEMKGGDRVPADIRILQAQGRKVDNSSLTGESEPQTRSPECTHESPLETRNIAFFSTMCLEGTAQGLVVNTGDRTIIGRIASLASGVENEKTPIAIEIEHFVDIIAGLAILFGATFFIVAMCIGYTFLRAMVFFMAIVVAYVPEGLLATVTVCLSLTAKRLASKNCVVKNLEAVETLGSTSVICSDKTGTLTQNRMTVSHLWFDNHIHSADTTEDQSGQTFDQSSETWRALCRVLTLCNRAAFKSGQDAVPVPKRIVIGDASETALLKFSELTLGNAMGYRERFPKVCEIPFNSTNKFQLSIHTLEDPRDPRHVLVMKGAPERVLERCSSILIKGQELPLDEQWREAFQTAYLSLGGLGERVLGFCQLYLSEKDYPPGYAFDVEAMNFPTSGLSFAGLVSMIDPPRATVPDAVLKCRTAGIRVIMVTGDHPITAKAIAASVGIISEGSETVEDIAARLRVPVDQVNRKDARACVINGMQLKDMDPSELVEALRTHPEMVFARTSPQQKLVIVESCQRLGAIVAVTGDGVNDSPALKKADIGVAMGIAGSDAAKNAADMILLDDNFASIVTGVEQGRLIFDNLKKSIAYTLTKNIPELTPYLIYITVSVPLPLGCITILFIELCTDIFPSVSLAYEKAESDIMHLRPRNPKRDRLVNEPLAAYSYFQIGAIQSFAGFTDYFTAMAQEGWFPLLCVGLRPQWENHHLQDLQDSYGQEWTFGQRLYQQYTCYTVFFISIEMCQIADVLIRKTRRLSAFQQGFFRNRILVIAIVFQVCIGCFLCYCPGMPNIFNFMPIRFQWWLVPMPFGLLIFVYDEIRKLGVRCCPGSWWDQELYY
# T1 sequence (P18434 whole entry partner): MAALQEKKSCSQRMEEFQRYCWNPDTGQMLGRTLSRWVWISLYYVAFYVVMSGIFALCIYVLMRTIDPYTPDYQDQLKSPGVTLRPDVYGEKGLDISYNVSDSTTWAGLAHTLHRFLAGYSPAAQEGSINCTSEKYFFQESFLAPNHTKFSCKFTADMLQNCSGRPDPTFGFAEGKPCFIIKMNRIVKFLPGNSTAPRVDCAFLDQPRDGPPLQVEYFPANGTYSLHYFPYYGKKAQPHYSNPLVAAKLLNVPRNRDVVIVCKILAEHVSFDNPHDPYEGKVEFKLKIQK
smiles,measurement,setting,value
"O=c1cc(-c2ccccc2)oc2cc(OCCCCCCN3CCCCC3)cc(O)c12 [CPP-1, 5-Hydroxy-2-phenyl-7-(6-piperidin-1-yl-hexyloxy)-chromen-4-one]",MIC50,H. pylori [1]; 72 h,~3.12 µg/mL
same,MIC,"H. pylori [1]; 72 h, panel of 6 clinical isolates and 4 standard strains, read-out: MIC Range",3.12 to 25 µg/mL
same,MIC50,H. pylori [1],3.12 µg/mL
same,MIC,"H. pylori [1]; clinical strain HP001, read-out: MIC",6.25 µg/mL
same,MIC,"H. pylori [1]; clinical strain HP002, read-out: MIC",6.25 µg/mL
same,MIC,"H. pylori [1]; clinical strain HP003, read-out: MIC",< 3.12 µg/mL
same,MIC,"H. pylori [1]; clinical strain HP004, read-out: MIC",< 3.12 µg/mL
same,MIC,"H. pylori [1]; clinical strain HP005, read-out: MIC",< 3.12 µg/mL
same,MIC,"H. pylori [1]; clinical strain HP006, read-out: MIC",< 3.12 µg/mL
same,MIC,"H. pylori [1]; standard strain 43504, read-out: MIC",6.25 µg/mL
same,MIC,"H. pylori [1]; standard strain 43629, read-out: MIC",25 µg/mL
same,MIC,"H. pylori [1]; standard strain 49503, read-out: MIC",6.25 µg/mL
same,MIC,"H. pylori [1]; standard strain 700392, read-out: MIC",3.12 µg/mL
same,IC50,[2],23.7 µM
same,"Percent inhibition of H^+, K^+-ATPase activity",[2]; 1 mg/assay (so in the source),20%
same,"Percent inhibition of H^+, K^+-ATPase activity",[2]; 5 mg/assay (so in the source),30%
same,"inhibition of H^+,K^+-ATPase",[2]; dose range of 1-10 μg/assay,10-50%
same,MBC,"H. pylori [3]; 2 h, pH ~2.0, 2 h, 25° C., 43504, read-out: MBC, Acid treated",25000 µg/mL
same,MIC,"H. pylori [3]; 2 h, pH ~2.0, 2 h, 25° C., 43504, read-out: MIC, Acid treated",12500 µg/mL
same,MBC,"H. pylori [3]; 2 h, pH ~2.0, 2 h, 25° C., HP001, read-out: MBC, Acid treated",< 12500 µg/mL
same,MIC,"H. pylori [3]; 2 h, pH ~2.0, 2 h, 25° C., HP001, read-out: MIC, Acid treated",12500 µg/mL
same,MBC,"H. pylori [3]; not acid treated, 43504, read-out: MBC, Control",< 6250 µg/mL
same,MIC,"H. pylori [3]; not acid treated, 43504, read-out: MIC, Control",6250 µg/mL
same,MBC,"H. pylori [3]; not acid treated, HP001, read-out: MBC, Control",12500 µg/mL
same,MIC,"H. pylori [3]; not acid treated, HP001, read-out: MIC, Control",6250 µg/mL
same,increase in MIC and MBC values upon exposure to acid,H. pylori [3]; pH 2.0 for 2 hours,about 2 fold
same,MBC,H. pylori [4]; [5],~6.25 µg/mL
same,MIC,H. pylori [4]; [5],~6.25 µg/mL
same,MBC,"H. pylori [4]; microbroth dilution, HP001",12.5 µg/mL
same,MIC,"H. pylori [4]; microbroth dilution, HP001",6.25 µg/mL
same,MBC,H. pylori [4]; range over strains,6.25 to 12.5 µg/mL
same,MIC/MBC dose range,H. pylori [4]; dose range at which irreversible morphological deformation is induced,6.25 to 12.5 µg/mL
same,decrease of growth,"H. pylori ATCC 43504; 50 mg/mL (so in the source), pH 4.0, 5.0 and 6.0, short exposure",3 log
same,survival of bacteria,"H. pylori ATCC 43504; 50 mg/mL (so in the source), pH 7.2",the bacteria survived
same,rate of killing as function of pH,H. pylori ATCC 43504; 100 and 150 mg/mL (so in the source),the rate of killing was found to increase as the pH of the media raised
